Measurements taken from PubChem BioAssay AID248 (DTP/NCI, 2004).
Several values for one entry are separate records, joined by “and”; a condition that tells them apart may be missing. Equal entries are not always repeated. Toxic doses and inconclusive results are not listed. Rule as the data show it: active = T/C of 150% or more; inactive = T/C below 125%.

Test system: L1210 leukemia ip in BDF1 mice, survival T/C
Test: NCI In Vivo Anticancer Drug Screen. Data for tumor model L1210 Leukemia (intraperitoneal) in B6D2F1 (BDF1) mice
Details: endpoint: mean survival time, higher = longer survival
How it was run: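 Each compound was tested against a transplantable tumor grown in mice. The endpoint was survival, with treated animals benchmarked against vehicle controls as a simple ratio.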

[1] = dose: 100.0 mg/kg/injection, schedule: Q01DX009 (ip), vehicle: Klucel (hydroxypropylcellulose) (HPC)
[2] = dose: 200.0 mg/kg/injection, schedule: Q01DX009 (ip), vehicle: Klucel (hydroxypropylcellulose) (HPC)
[3] = dose: 400.0 mg/kg/injection, schedule: Q01DX009 (ip), vehicle: Klucel (hydroxypropylcellulose) (HPC)
[4] = dose: 100.0 mg/kg/injection, schedule: Q01DX009 (ip), vehicle: saline with Tween-80
[5] = dose: 100.0 mg/kg/injection, schedule: Q04DX003 (ip), vehicle: saline with Tween-80
[6] = dose: 200.0 mg/kg/injection, schedule: Q01DX009 (ip), vehicle: saline with Tween-80
[7] = dose: 200.0 mg/kg/injection, schedule: Q04DX003 (ip), vehicle: saline with Tween-80
[8] = dose: 400.0 mg/kg/injection, schedule: Q01DX009 (ip), vehicle: saline with Tween-80
[9] = dose: 400.0 mg/kg/injection, schedule: Q04DX003 (ip), vehicle: saline with Tween-80
[10] = dose: 100.0 mg/kg/injection, schedule: Q01DX001 (ip), vehicle: Klucel (hydroxypropylcellulose) (HPC)
[11] = dose: 200.0 mg/kg/injection, schedule: Q01DX001 (ip), vehicle: Klucel (hydroxypropylcellulose) (HPC)
[12] = dose: 100.0 mg/kg/injection, schedule: Q04DX003 (ip), vehicle: saline
[13] = dose: 400.0 mg/kg/injection, schedule: Q01DX001 (ip), vehicle: Klucel (hydroxypropylcellulose) (HPC)
[14] = dose: 100.0 mg/kg/injection, schedule: Q01DX001 (ip), vehicle: saline
[15] = dose: 200.0 mg/kg/injection, schedule: Q01DX001 (ip), vehicle: saline
[16] = dose: 400.0 mg/kg/injection, schedule: Q01DX001 (ip), vehicle: saline

Measured: T/C

CCCCCCCOC(C[N+](=O)[O-])C(Cl)(Cl)Cl (stereo unspecified)
inactive: dose: 25.0 mg/kg/injection, schedule: Q01DX009 (ip), vehicle: acetone 95 % of control | dose: 50.0 mg/kg/injection, schedule: Q01DX009 (ip), vehicle: acetone 93 % of control | dose: 100.0 mg/kg/injection, schedule: Q04DX003 (ip), vehicle: acetone 99 % of control

CC(C)N(C(=O)c1ccccc1Cl)c1ccccc1
inactive: [1] 92 % of control | [2] 103 % of control | [3] 103 % of control

CC1(C)CC(=O)c2c(cc(O)c3ccc(=O)oc23)O1
inactive: [1] 96 % of control | dose: 100.0 mg/kg/injection, schedule: Q04DX003 (ip), vehicle: Klucel (hydroxypropylcellulose) (HPC) 100 % of control | [2] 98 % of control | dose: 200.0 mg/kg/injection, schedule: Q04DX003 (ip), vehicle: Klucel (hydroxypropylcellulose) (HPC) 104 % of control | [3] 91 % of control | dose: 400.0 mg/kg/injection, schedule: Q04DX003 (ip), vehicle: Klucel (hydroxypropylcellulose) (HPC) 96 % of control

Cc1ccc(C(=O)/C=C\c2ccccc2)cc1
inactive: [4] 110 % of control | [5] 103 % of control | [6] 97 % of control | [7] 98 % of control | [8] 97 % of control | [9] 92 % of control

CC(=O)N(C)c1ccc(S(=O)(=O)F)cc1
inactive: [10] 103 % of control | [11] 103 % of control

Cc1ccc(Sc2cccc3c2C(=O)c2c(Sc4ccc(C)cc4)cccc2C3(Br)c2ccccc2)cc1
inactive: [4] 87 % of control | [5] 95 % of control | [7] 97 % of control | [8] 97 % of control | [9] 88 % of control

N#CCCCc1ccccc1
inactive: dose: 50.0 mg/kg/injection, schedule: Q01DX009 (ip), vehicle: Klucel (hydroxypropylcellulose) (HPC) 96 % of control | [1] 104 % of control | [2] 112 % of control

Cc1cc(Cl)ccc1NC(=O)Nc1ccccc1F
inactive: [1] 100 % of control | [2] 96 % of control | [3] 94 % of control

CC1(C)c2ccccc2C(C)(O)c2ccccc21
inactive: [4] 96 % of control | dose: 100.0 mg/kg/injection, schedule: Q04DX003 (ip), vehicle: other 104 % of control | [6] 93 % of control | dose: 200.0 mg/kg/injection, schedule: Q04DX003 (ip), vehicle: other 94 % of control | [8] 93 % of control | dose: 400.0 mg/kg/injection, schedule: Q04DX003 (ip), vehicle: other 107 % of control

C=C(Br)CN(CC)C(C)=O
inactive: [12] 108 % of control

Cc1ccc(NC(=O)Nc2ccccc2Cl)cc1
inactive: dose: 100.0 mg/kg/injection, schedule: Q01DX009 (ip), vehicle: gum acacia 86 % of control | dose: 100.0 mg/kg/injection, schedule: Q04DX003 (ip), vehicle: gum acacia 89 % of control | dose: 200.0 mg/kg/injection, schedule: Q01DX009 (ip), vehicle: gum acacia 94 % of control | dose: 200.0 mg/kg/injection, schedule: Q04DX003 (ip), vehicle: gum acacia 89 % of control | dose: 400.0 mg/kg/injection, schedule: Q01DX009 (ip), vehicle: gum acacia 94 % of control | dose: 400.0 mg/kg/injection, schedule: Q04DX003 (ip), vehicle: gum acacia 98 % of control

CCC1(CCCCBr)OCCO1
inactive: [10] 103 % of control | [11] 100 % of control | [13] 93 % of control

C[n+]1ccc2cc(-c3ccccc3)c3ccccc3c2c1
inactive: dose: 1.56 mg/kg/injection, schedule: Q01DX009 (ip), vehicle: water 102 % of control | dose: 3.12 mg/kg/injection, schedule: Q01DX009 (ip), vehicle: water 104 % of control | dose: 6.25 mg/kg/injection, schedule: Q01DX009 (ip), vehicle: water 104 % of control | dose: 6.25 mg/kg/injection, schedule: Q04DX003 (ip), vehicle: water 98 % of control | dose: 12.5 mg/kg/injection, schedule: Q01DX009 (ip), vehicle: water 95 % of control | dose: 12.5 mg/kg/injection, schedule: Q04DX003 (ip), vehicle: water 103 % of control | dose: 25.0 mg/kg/injection, schedule: Q04DX003 (ip), vehicle: water 88 % of control

O=C1C=C(NCCCCC2CCCCC2)c2ccccc2C1=O
inactive: [14] 95 % of control | [15] 97 % of control | [16] 91 % of control

CCC(=O)C1(c2cccc(O)c2)CCN(C)CC1
inactive: dose: 75.0 mg/kg/injection, schedule: Q01DX001 (ip), vehicle: saline 94 % of control | dose: 150.0 mg/kg/injection, schedule: Q01DX001 (ip), vehicle: saline 97 % of control

O=C(C1OC1c1ccccc1)C1OC1c1ccccc1 (stereo unspecified)
inactive: [1] 98 % of control | [2] 101 % of control | [3] 95 % of control

COc1cc(/C(C)=C2\SC(=O)NC2=O)ccc1O
inactive: [14] 106 % of control | [15] 95 % of control | [16] 98 % of control

NNC(=O)c1cc2ccncc2c2sc3ccccc3c12
inactive: [12] 92 % of control | dose: 200.0 mg/kg/injection, schedule: Q04DX003 (ip), vehicle: saline 88 % of control | dose: 400.0 mg/kg/injection, schedule: Q04DX003 (ip), vehicle: saline 97 % of control

Cc1ccc(S(=O)(=O)Nc2ccc([N+](=O)[O-])cc2)cc1
inactive: [10] 97 % of control | [11] 97 % of control | [13] 113 % of control

C/C(=N\NC(N)=S)C1OCCc2ccccc21 (stereo unspecified)
inactive: dose: 5.0 mg/kg/injection, schedule: Q01DX001 (ip), vehicle: saline 105 % of control | dose: 10.0 mg/kg/injection, schedule: Q01DX001 (ip), vehicle: saline 90 % of control | dose: 20.0 mg/kg/injection, schedule: Q01DX001 (ip), vehicle: saline 98 % of control

N#CC(C#N)=Cc1ccc2ccccc2c1Br
inactive: [4] 96 % of control | [6] 94 % of control | [8] 90 % of control

Cn1c2c(c(=O)n(C)c1=O)C(=Nc1ccccc1N)C(=O)N2
inactive: [14] 101 % of control | [15] 101 % of control | [16] 90 % of control

[N-]=[N+]=NC(=O)c1cccc2c1Cc1ccccc1-2
inactive: [5] 96 % of control | [7] 86 % of control | [9] 96 % of control

CC(=O)Oc1cccc2c1C(=O)OC2=O
inactive: dose: 100.0 mg/kg/injection, schedule: Q01DX001 (ip), vehicle: saline with Tween-80 89 % of control | dose: 200.0 mg/kg/injection, schedule: Q01DX001 (ip), vehicle: saline with Tween-80 108 % of control

O=C1C(Cl)=CC(Cl)=C/C1=N/Cl
inactive: dose: 25.0 mg/kg/injection, schedule: Q01DX001 (ip), vehicle: Klucel (hydroxypropylcellulose) (HPC) 110 % of control | dose: 50.0 mg/kg/injection, schedule: Q01DX001 (ip), vehicle: Klucel (hydroxypropylcellulose) (HPC) 107 % of control | [10] 95 % of control and 100 % of control

CCOC(=O)CSc1ccc2ccccc2[n+]1-c1ccccc1
inactive: [14] 99 % of control | [15] 94 % of control

O=C(Nc1cc(Cl)ccc1Cl)C(Cl)(Cl)Cl
inactive: [10] 97 % of control | [11] 103 % of control | [13] 93 % of control

O=C1CCCCC1(CCc1ccncc1)CCc1ccncc1
inactive: dose: 44.0 mg/kg/injection, schedule: Q01DX Z (ip), vehicle: methylcellulose (MC) 96 % of control | dose: 66.0 mg/kg/injection, schedule: Q01DX Z (ip), vehicle: methylcellulose (MC) 102 % of control | dose: 100.0 mg/kg/injection, schedule: Q01DX Z (ip), vehicle: methylcellulose (MC) 109 % of control
